Values after ≈ are worked out from the molar mass of the structure shown. One block for each compound: values may come before it.
What was measured:
[1] = tested on: immortalized sebocyte cell line; experiment: Sebocyte proliferation: viability (M.T.T. test) and morphology after 72 hours; type: cell-based, human
Source text: In an embodiment, the pharmacodynamics of a composition comprising DGLA, 15-OHEPA, or 15-HETrE as disclosed herein may be examined using a model of sebum production. In an embodiment, the effects of a composition comprising DGLA, 15-OHEPA, or 15-HETrE as disclosed herein on the proliferation and/or differentiation of sebocytes serves as a model for the pharmacodynamics on sebum production (see, e.g., U.S. Patent Application Publication No. US 2010/0278948, the contents of which are incorporated by reference). In an exemplary method, primary sebocytes are isolated from skin tissue (e.g., human scalp tissue). The isolated primary sebocytes are then immortalized, and the resulting cell line is divided into discrete cultures. Discrete cultures can then be treated with various concentrations of a composition comprising DGLA, 15-OHEPA, or 15-HETrE as disclosed herein. For comparison, a negative control (e.g., a culture of an immortalized sebocyte cell line left untreated) and/or a positive control (e.g., treatment of an immortalized sebocyte cell line with a compound known to inhibit sebocyte growth such as isotretinoin) can be maintained alongside of the test cultures. In an embodiment, a pharmacodynamic assay is maintained for an amount of time suitable to observe differences (if any) between the various immortalized sebocyte cell cultures, for example less than about 24 hours, about 24 hours, about 48 hours, about 72 hours, about 96 hours, about 120 hours, about 144 hours, more than about 144 hours, etc. The effect of treating an immortalized sebocyte cell culture with a given composition or compound can be determined by quantifying, for example and without limitation, the viability of the cultures (e.g., the percent viability and/or mean percent viability). The effect of treating an immortalized sebocyte cell culture with a given composition or compound can be determined by qualitatively assessing, for example and without limitation, morphological changes in the culture. In an embodiment, changes in the morphology of the culture may be classified as: no change (e.g., “normal” population), reduced growth (e.g., “growth reduction”), toxic changes (e.g., “toxicity”), and/or cell death (e.g., “cell mortality”).
The compounds tested in Example 1 were tested to determine the capacity of each to reduce sebum production. In an exemplary method, each compound's ability to inhibit the growth of an immortalized sebocyte cell line was determined.
Primary sebocytes were isolated from sebaceous glands obtained from dissections of human scalp tissue. The primary sebocytes were immortalized and the resulting cell culture was used to study the effects of DGLA and 15-HETrE on sebocyte cell proliferation. Individual cell cultures were treated with eight concentrations of DGLA (1.00 μM, 4.00 μM, […], 37.00 μM, 111.00 μM, 333.00 μM, 1000.00 μM, and 3000.00 μM), and eight concentrations of 15-HETrE (0.50 1.00 4.00 10.00 40.00 110.00 330.00 1000.00). As a positive control, individual cell cultures were treated with eight concentrations of Isotretinoin. Negative control cultures were also maintained. After 72 hours, the mean percent viability for each of the cultures was determined by colorimetry (M.T.T. test) according to J. Mosmann, J. Immunol. Meth., vol. 65, pp. 55-63 (1983), and morphological differences were also observed at that time (see Table 9).

P. acnes = experiment: Agar dilution method, growth of P. acnes and MIC, single compounds; type: cell-based, Propionibacterium acnes; set-up: key to Growth Index Plate 1 / Growth Index Plate 2 / Growth Index Plate 3 / Growth Index Avg: +++: confluent growth (comparable to control); ++: less confluent growth; +: marked reduction in growth to multiple tiny, single colonies; −: no growth present; conditions: for MIC: Cutibacterium acnes, compound alone, MIC = concentration with marked reduction (+) of growth, read-out: MIC (mg/mL) as per P-11-0007 or P-11-0008 Addendum A
Protocol: Several compounds including fatty acids such as DGLA, 15-OHEPA, and 15-HETrE were tested to determine their capacity to inhibit the growth of P. acnes. In an exemplary method, an agar dilution method was used to determine the minimum inhibitory concentration (MIC) of each tested compound. Briefly, the agar dilution method involved preparing a series of concentrations of each compound (e.g., nicotinamide, benzoyl peroxide, adapalene, metronidazole, DGLA, 15-OHEPA, and 15-HETrE) in a Reinforced Clostridial Agar (RCA) media that facilitates growth of P. acnes under anaerobic conditions. An inoculum of P. acnes was prepared by incubation of P. acnes for approximately seven days at 35-37° C. to achieve a ≧1.0 OD600 inoculum of P. acnes in RCM broth. A portion of this inoculum was then added to the surface of each plate as a 10 μL spot and incubated at 35-37° C. for 72 hours or more. Growth of P. acnes was then observed and compared to control plates in which no compound has been added, and positive inhibition plates prepared with erythromycin. […] The growth of P. acnes in the presence of nicotinamide, benzoyl peroxide, adapalene, metronidazole, DGLA, 15-OHEPA, and 15-HETrE was determined with varying concentrations of the compound (see, Table 2). Next, the MIC was determined as the concentration at which a marked reduction (+) occurs in the appearance of growth on the test plate (as per Clinical and Laboratory Standards Institute M11-A7).

[2] = tested on: immortalized sebocyte cell line; experiment: Sebocyte proliferation: viability (M.T.T. test) and morphology after 72 hours; type: cell-based; conditions: Homo sapiens

SMILES: CCCCCC(O)/C=C/C=C\C/C=C\CCCCCCC(=O)O (stereo not drawn) [15-HETrE, 15-hydroxy-eicosa-8(Z),11(Z),13(E)-trienoic acid]
Mean % Viability ([1]; 0.5 µM): 85% | Mean % Viability ([1]; 1 µM): 77% | Mean % Viability ([1]; 4 µM): 52% | Morphological Observations ([1]; 4.00 μM, 72 hours): toxicity | Mean % Viability ([1]; 10 µM): 18% | Morphological Observations ([1]; 10.00 μM (10 μM), 72 hours): toxicity | Mean % Viability ([1]; 40 µM): 1% | Mean % Viability ([1]; 110 µM): 1% | Mean % Viability ([1]; 330 µM): 0% | Mean % Viability ([1]; 1000 µM): 0% | effect on growth of P. acnes on its own (P. acnes; 0.01 mg/ml): no effect | Growth Index Avg (P. acnes; compound at 0.00001 mg/mL): +++ | Growth Index Plate 1 (P. acnes; compound at 0.00001 mg/mL): +++ | Growth Index Plate 2 (P. acnes; compound at 0.00001 mg/mL): +++ | Growth Index Plate 3 (P. acnes; compound at 0.00001 mg/mL): +++ | Growth Index Avg (P. acnes; compound at 0.0001 mg/mL): +++ | Growth Index Plate 1 (P. acnes; compound at 0.0001 mg/mL): +++ | Growth Index Plate 2 (P. acnes; compound at 0.0001 mg/mL): +++ | Growth Index Plate 3 (P. acnes; compound at 0.0001 mg/mL): +++ | Growth Index Avg (P. acnes; compound at 0.001 mg/mL): +++ | Growth Index Plate 1 (P. acnes; compound at 0.001 mg/mL): +++ | Growth Index Plate 2 (P. acnes; compound at 0.001 mg/mL): +++ | Growth Index Plate 3 (P. acnes; compound at 0.001 mg/mL): +++ | Growth Index Avg (P. acnes; compound at 0.01 mg/mL): ++ | Growth Index Plate 1 (P. acnes; compound at 0.01 mg/mL): ++ | Growth Index Plate 2 (P. acnes; compound at 0.01 mg/mL): +++ | Growth Index Plate 3 (P. acnes; compound at 0.01 mg/mL): ++ | Growth Index Avg (P. acnes; compound at 0.05 mg/mL): − | Growth Index Plate 1 (P. acnes; compound at 0.05 mg/mL): − | Growth Index Plate 2 (P. acnes; compound at 0.05 mg/mL): − | Growth Index Plate 3 (P. acnes; compound at 0.05 mg/mL): −

SMILES: CCC=CCC(O)C=CC=CCC=CCC=CCCCC(=O)O (stereo not drawn) [15-OHEPA, 15-Hydroxy-eicosa-5,8,11,13,17-pentaenoic acid]
effect on growth of P. acnes on its own (P. acnes; 0.05 mg/mL): no effect | MIC (P. acnes): 50 to 75 µg/mL (≈ 157 to 236 µM) | Growth Index Avg (P. acnes; compound at 0.010 mg/mL): +++ | Growth Index Plate 1 (P. acnes; compound at 0.010 mg/mL): +++ | Growth Index Plate 2 (P. acnes; compound at 0.010 mg/mL): +++ | Growth Index Plate 3 (P. acnes; compound at 0.010 mg/mL): +++ | Growth Index Avg (P. acnes; compound at 0.025 mg/mL): +++ | Growth Index Plate 1 (P. acnes; compound at 0.025 mg/mL): +++ | Growth Index Plate 2 (P. acnes; compound at 0.025 mg/mL): +++ | Growth Index Plate 3 (P. acnes; compound at 0.025 mg/mL): +++ | Growth Index Avg (P. acnes; compound at 0.050 mg/mL): +++ | Growth Index Plate 1 (P. acnes; compound at 0.050 mg/mL): +++ | Growth Index Plate 2 (P. acnes; compound at 0.050 mg/mL): +++ | Growth Index Plate 3 (P. acnes; compound at 0.050 mg/mL): +++ | Growth Index Avg (P. acnes; compound at 0.075 mg/mL): + | Growth Index Plate 1 (P. acnes; compound at 0.075 mg/mL): + | Growth Index Plate 2 (P. acnes; compound at 0.075 mg/mL): + | Growth Index Plate 3 (P. acnes; compound at 0.075 mg/mL): + | Growth Index Avg (P. acnes; compound at 0.1 mg/mL): − | Growth Index Plate 1 (P. acnes; compound at 0.1 mg/mL): − | Growth Index Plate 2 (P. acnes; compound at 0.1 mg/mL): − | Growth Index Plate 3 (P. acnes; compound at 0.1 mg/mL): −

SMILES: CC1=C(/C=C/C(C)=C/C=C/C(C)=C\C(=O)O)C(C)(C)CCC1 [Isotretinoin]
Morphological Observations ([1]; 1.11 μM, 72 hours): toxicity | viability at 0.005 µM ([1]; Homo sapiens, 0.005 μM, 72 hours): 105% | viability at 0.014 µM ([1]; Homo sapiens, 0.014 μM, 72 hours): 110% | viability at 0.041 µM ([1]; Homo sapiens, 0.041 μM, 72 hours): 103% | viability at 0.123 µM ([1]; Homo sapiens, 0.123 μM, 72 hours): 96% | viability at 0.37 µM ([1]; Homo sapiens, 0.370 μM, 72 hours): 88% | viability at 1.11 µM ([1]; Homo sapiens, 1.11 μM, 72 hours): 76% | viability at 3.33 µM ([1]; Homo sapiens, 3.33 μM, 72 hours): 8% | viability at 10 µM ([1]; Homo sapiens, 10.00 μM (10 μM), 72 hours): 1%

Continued, in another order:

MIC (P. acnes): 400 to 600 µg/mL (≈ 1310 to 1960 µM)
SMILES: CCCCC/C=C\C/C=C\C/C=C\CCCCCCC(=O)O [DGLA, cis-8,11,14-eicosatrienoic acid]
viability at 12 µM [2]: 63% | viability at 1 µM ([1]; Homo sapiens, 1.00 μM, 72 hours): 107% | viability at 4 µM ([1]; Homo sapiens, 4.00 μM, 72 hours): 97% | viability at 37 µM ([1]; Homo sapiens, 37.00 μM, 72 hours): 1% | viability at 111 µM ([1]; Homo sapiens, 111.00 μM, 72 hours): 2% | viability at 333 µM ([1]; Homo sapiens, 333.00 μM, 72 hours): 1% | viability at 1000 µM ([1]; Homo sapiens, 1000.00 μM, 72 hours): 1% | viability at 3000 µM ([1]; Homo sapiens, 3000.00 μM, 72 hours): 3% | effect on growth of P. acnes on its own (P. acnes; 0.4 mg/ml): no effect | Growth Index Avg (P. acnes; compound at 0.2 mg/mL): +++ | Growth Index Plate 1 (P. acnes; compound at 0.2 mg/mL): +++ | Growth Index Plate 2 (P. acnes; compound at 0.2 mg/mL): +++ | Growth Index Plate 3 (P. acnes; compound at 0.2 mg/mL): +++ | Growth Index Avg (P. acnes; compound at 0.4 mg/mL): +++ | Growth Index Plate 1 (P. acnes; compound at 0.4 mg/mL): +++ | Growth Index Plate 2 (P. acnes; compound at 0.4 mg/mL): +++ | Growth Index Plate 3 (P. acnes; compound at 0.4 mg/mL): +++ | Growth Index Avg (P. acnes; compound at 0.6 mg/mL): + | Growth Index Plate 1 (P. acnes; compound at 0.6 mg/mL): ++ | Growth Index Plate 2 (P. acnes; compound at 0.6 mg/mL): − | Growth Index Plate 3 (P. acnes; compound at 0.6 mg/mL): ++ | Growth Index Avg (P. acnes; compound at 0.8 mg/mL): + | Growth Index Plate 1 (P. acnes; compound at 0.8 mg/mL): ++ | Growth Index Plate 2 (P. acnes; compound at 0.8 mg/mL): + | Growth Index Plate 3 (P. acnes; compound at 0.8 mg/mL): + | Growth Index Avg (P. acnes; compound at 1.0 mg/mL): + | Growth Index Plate 1 (P. acnes; compound at 1.0 mg/mL): + | Growth Index Plate 2 (P. acnes; compound at 1.0 mg/mL): + | Growth Index Plate 3 (P. acnes; compound at 1.0 mg/mL): +

MIC (P. acnes): 0.01 to 0.05 µg/mL (≈ 0.0136 to 0.0681 µM)
SMILES: CC[C@H]1OC(=O)[C@H](C)[C@@H](O[C@H]2C[C@@](C)(OC)[C@@H](O)[C@H](C)O2)[C@H](C)[C@@H](O[C@@H]2O[C@H](C)C[C@H](N(C)C)[C@H]2O)[C@](C)(O)C[C@@H](C)C(=O)[C@H](C)[C@@H](O)[C@]1(C)O [Erythromycin]

Reference: patent US20130274338A1, “PHARMACEUTICAL COMPOSITIONS COMPRISING DGLA, 15-OHEPA, AND/OR 15-HETRE AND METHODS OF REDUCING SEBUM PRODUCTION USING SAME” (priority 2012, published 2013)
